Patent publication US20240018122A1, “PYRIDAZINYL AMINO DERIVATIVES AS ALK5 INHIBITORS” (CHIESI FARMACEUTICI S.P.A., priority 2020, published 2024)

Target: human ALK5 (Homo sapiens (Human), UniProt P36897)
Test: ADP-GLO Kinases assay, inhibitory activity on ALK5
Format: biochemical
Conditions: not given

Sequence of human ALK5 (P36897 80-503 limits assumed): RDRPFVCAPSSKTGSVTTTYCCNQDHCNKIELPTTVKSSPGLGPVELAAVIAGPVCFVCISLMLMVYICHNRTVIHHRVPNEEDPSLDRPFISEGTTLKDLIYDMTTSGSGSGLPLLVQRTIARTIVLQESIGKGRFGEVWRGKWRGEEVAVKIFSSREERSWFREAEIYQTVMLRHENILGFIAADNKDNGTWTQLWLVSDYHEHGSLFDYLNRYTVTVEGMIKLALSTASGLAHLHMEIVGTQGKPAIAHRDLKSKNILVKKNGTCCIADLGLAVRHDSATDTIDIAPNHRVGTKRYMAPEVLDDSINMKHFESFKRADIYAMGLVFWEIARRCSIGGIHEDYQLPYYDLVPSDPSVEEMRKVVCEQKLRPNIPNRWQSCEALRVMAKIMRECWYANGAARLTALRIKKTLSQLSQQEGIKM

SMILES | IC50 [nM]
CN1CCC(CCN(C)C(=O)Oc2ccc3c(Nc4cnnc(-c5cc(Cl)ccc5F)c4)ccnc3c2)CC1 [Example 51, 4-{[6-(5-Chloro-2-Fluorophenyl)Pyridazin-4-Yl]Amino}Quinolin-7-Yl N-Methyl-N-[2-(1-Methylpiperidin-4-Yl)Ethyl]Carbamate] | 1 to 5
CN1CCC(CN2CCN(C(=O)Oc3ccc4c(Nc5cnnc(-c6cc(Cl)ccc6F)c5)ccnc4c3)CC2)CC1 [Example 100, 4-{[6-(5-Chloro-2-Fluorophenyl)Pyridazin-4-Yl]Amino}Quinolin-7-Yl 4-[(1-Methylpiperidin-4-Yl)Methyl]Piperazine-1-Carboxylatate] | 1 to 5
Cc1nnc(-c2cc(Cl)ccc2F)cc1Nc1ccnc2cc(OC(=O)N3CC4CC3CN4C)ccc12 (stereo not shown) [Example 128, 4-{[6-(5-Chloro-2-Fluorophenyl)-3-Methylpyridazin-4-Yl]Amino}Quinolin-7-Yl 5-Methyl-2,5-Diazabicyclo[2.2.1]Heptane-2-Carboxylate] | < 1

Same assay, conditions: purified recombinant human ALK5 2.6 nM, TGFβ1 peptide substrate, 25° C, 150 min incubation, ADP-Glo detection; read-out: ALK5 IC50

SMILES | IC50 [nM]
Cc1nnc(-c2cc(Cl)ccc2F)cc1Nc1ccnc(NC(=O)CCN2CCOCC2)c1 [Example 78, N-(4-{[6-(5-Chloro-2-Fluorophenyl)-3-Methylpyridazin-4-Yl]Amino}Pyridin-2-Yl)-3-(Morpholin-4-Yl)Propanamide] | < 1
Cc1nnc(-c2cc(Cl)ccc2F)cc1Nc1ccnc(NC(=O)CCN2CCN(C)C(C(=O)OC3CC3)C2)c1 (stereo not shown) [Example 127, Cyclopropyl 4-{2-[(4-{[6-(5-Chloro-2-Fluorophenyl)-3-Methylpyridazin-4-Yl]Amino}Pyridin-2-Yl)Carbamoyl]Ethyl}-1-Methylpiperazine-2-Carboxylate] | < 1
N#CCCN1CCN(CCC(=O)Nc2cc(Nc3cc(-c4cc(Cl)ccc4F)nnc3C(F)(F)F)ccn2)CC1 [Example 186, N-(4-{[6-(5-chloro-2-fluorophenyl)-3-(trifluoromethyl)pyridazin-4-yl]amino}pyridin-2-yl)-3-[4-(2-cyanoethyl)piperazin-1-yl]propenamide] | < 1
Cc1nnc(-c2cc(Cl)ccc2F)cc1Nc1ccnc(NC(=O)N2CCC3(CCN(C)C3)CC2)c1 [Example 150, N-(4-{[6-(5-Chloro-2-Fluorophenyl)-3-Methylpyridazin-4-Yl]Amino}Pyridin-2-Yl)-2-Methyl-2,8-Diazaspiro[4.5]Decane-8-Carboxamide] | < 1
CN1CCC(NC(=O)c2cc3c(Nc4cnnc(-c5cc(Cl)ccc5F)c4)ccnc3cn2)CC1 [Example 26, 4-{[6-(5-Chloro-2-Fluorophenyl)Pyridazin-4-Yl]Amino}-N-(1-Methylpiperidin-4-Yl)-1,7-Naphthyridine-6-Carboxamide] | 1 to 5
COC(=O)N(C)CCN1CCN(CC(=O)Nc2cc(Nc3cc(-c4cc(Cl)ccc4F)nnc3CO)ccn2)CC1 [Example 175, Methyl N-[2-(4-{[(4-{[6-(5-Chloro-2-Fluorophenyl)-3-(Hydroxymethyl)Pyridazin-4-Yl]Amino}Pyridin-2-Yl)Carbamoyl]Methyl}Piperazin-1-Yl)Ethyl]-N-Methylcarbamate] | < 1
CN1CCN(CCNC(=O)c2c[nH]c3nccc(Nc4cnnc(-c5cc(Cl)ccc5F)c4)c23)CC1 [Example 21, 4-{[6-(5-Chloro-2-Fluorophenyl)Pyridazin-4-Yl]Amino}-N-[2-(4-Methylpiperazin-1-Yl)Ethyl]-1H-Pyrrolo[2,3-13]Pyridine-3-Carboxamide] | 1 to 5
CCOC(=O)C1CN(CCC(=O)Nc2cc(Nc3cc(-c4cc(Cl)ccc4F)nnc3C)ccn2)CCN1C (stereo not shown) [Example 122, Ethyl 4-{2-[(4-{[6-(5-Chloro-2-Fluorophenyl)-3-Methylpyridazin-4-Yl]Amino}Pyridin-2-Yl)Carbamoyl]Ethyl}-1-Methylpiperazine-2-Carboxylate] | < 1
CN1CCN(CCOc2cc3nccc(Nc4cnnc(-c5cc(Cl)ccc5F)c4)c3cc2O)CC1 [Example 148, 4-{[6-(5-Chloro-2-Fluorophenyl)Pyridazin-4-Yl]Amino}-7-[2-(4-Methylpiperazin-1-Yl)Ethoxy]Quinolin-6-Ol] | < 1
COC(=O)CC1CN(CCC(=O)Nc2cc(Nc3cc(-c4cc(Cl)ccc4F)nnc3C)ccn2)CCN1C (stereo not shown) [Example 98, Methyl 2-(4-{2-[(4-{[6-(5-Chloro-2-Fluorophenyl)-3-Methylpyridazin-4-Yl]Amino}Pyridin-2-Yl)Carbamoyl]Ethyl}-1-Methylpiperazin-2-Yl)Acetate] | < 1
Cc1nnc(-c2cc(Cl)ccc2F)cc1Nc1ccnc(NC(=O)CCN2CCN(C)CC2CO)c1 (stereo not shown) [Example 163, N-(4-{[6-(5-chloro-2-fluorophenyl)-3-methylpyridazin-4-yl]amino}pyridin-2-yl)-3-[2-(hydroxymethyl)-4-methylpiperazin-1-yl]propanamide] | < 1
Cc1nnc(-c2cc(Cl)ccc2F)cc1Nc1ccnc(NC(=O)CN2CCN(CC(F)(F)F)CC2)c1 [Example 131, N-(4-{[6-(5-Chloro-2-Fluorophenyl)-3-Methylpyridazin-4-Yl]Amino}Pyridin-2-Yl)-2-[14-(2,2,2-Trifluoroethyl)Piperazin-1-Yl]Acetamide] | < 1
Cc1nnc(-c2cc(Cl)ccc2F)cc1Nc1ccnc(NC(=O)CCN2CCNCC2)c1 [Example 74, N-(4-{[6-(5-chloro-2-fluorophenyl)-3-methylpyridazin-4-yl]amino}pyridin-2-yl)-3-(piperazin-1-yl)propanamide] | < 1
COC(=O)CCc1nnc(-c2cc(Cl)ccc2F)cc1Nc1ccnc(NC(=O)CCN2CCN(C)CC2)c1 [Example 187, Methyl 3-[6-(5-Chloro-2-Fluorophenyl)-4-({2-[3-(4-Methylpiperazin-1-Yl)Propanamido]Pyridin-4-Yl}Amino)Pyridazin-3-Yl]Propanoate] | < 1
CN1CCN(CCOc2ccc3c(Nc4cnnc(-c5cc(Cl)ccc5F)c4)ccnc3c2)CC1 [Example 12, N-[6-(5-Chloro-2-Fluorophenyl)Pyridazin-4-Yl]-7-[2-(4-Methylpiperazin-1-Yl)Ethoxy]Quinolin-4-Amine] | < 1
CN1CCN(CCC(=O)Nc2cc(Nc3cc(-c4cc(Cl)ccc4F)nnc3C(F)(F)F)ccn2)CC1 [Example 182, N-(4-{[6-(5-Chloro-2-Fluorophenyl)-3-(Trifluoromethyl) Pyridazin-4-Yl]Amino}Pyridin-2-Yl)-3-(4-Methylpiperazin-1-Yl)Propanamide] | < 1
N#CCCN1CCN(CCOc2ccc3c(Nc4cnnc(-c5cc(Cl)ccc5F)c4)ccnc3c2)CC1 [Example 71, 3-(4-{2-[(4-{[6-(5-Chloro-2-Fluorophenyl)Pyridazin-4-Yl]Amino}Quinolin-7-Yl)Oxy]Ethyl}Piperazin-1-Yl)Propanenitrile] | < 1
O=C(Oc1ccc2c(Nc3cnnc(-c4cc(Cl)ccc4F)c3)ccnc2c1)N1CCC2(CCNCC2)C1 [Example 112, 4-{[6-(5-Chloro-2-Fluorophenyl)Pyridazin-4-Yl]Amino}Quinolin-7-Yl 2,8-Diazaspiro[4.5]Decane-2-Carboxylate] | < 1
COC(=O)C1CN(CCC(=O)Nc2cc(Nc3cc(-c4cc(Cl)ccc4F)nnc3C)ccn2)CCN1 (stereo not shown) [Example 91, Methyl 4-{2-[(4-{[6-(5-Chloro-2-Fluorophenyl)-3-Methylpyridazin-4-Yl]Amino}Pyridin-2-Yl)Carbamoyl]Ethyl}Piperazine-2-Carboxylate] | < 1
COC(=O)NCCN1CCN(CC(=O)Nc2cc(Nc3cc(-c4cc(Cl)ccc4F)nnc3C)ccn2)CC1 [Example 109, methyl N-[2-(4-{[(4-{[6-(5-chloro-2-fluorophenyl)-3-methylpyridazin-4-yl]amino}pyridin-2-yl)carbamoyl]methyl}piperazin-1-yl)ethyl]carbamate] | < 1
COC(=O)NCCN1CCN(CCOc2ccc3c(Nc4cnnc(-c5cc(Cl)ccc5F)c4)ccnc3c2)CC1 [Example 77, Methyl N-[2-(4-{2-[(4-{[6-(5-Chloro-2-Fluorophenyl)Pyridazin-4-Yl]Amino}Quinolin-7-Yl)Oxy]Ethyl}Piperazin-1-Yl)Ethyl]Carbamate] | < 1
CS(=O)(=O)N1CCN(CCC(=O)Nc2cc(Nc3cnnc(-c4cc(Cl)ccc4F)c3)ccn2)CC1 [Example 34, N-(4-{[6-(5-Chloro-2-Fluorophenyl)Pyridazin-4-Yl]Amino}Pyridin-2-Yl)-3-(4-Methanesulfonylpiperazin-1-Yl)Propanamide] | 1 to 5
O=C(OCCN1CCOCC1)c1ccc2c(Nc3cnnc(-c4cc(Cl)ccc4F)c3)ccnc2c1 [Example 6, 2-(Morpholin-4-Yl)Ethyl 4-{[6-(5-Chloro-2-Fluorophenyl)Pyridazin-4-Yl]Amino}Quinoline-7-Carboxylate] | < 1
CN1CCN(CC(=O)Nc2cc(Nc3cc(-c4cc(Cl)ccc4F)nnc3CO)ccn2)CC1 [Example 176, N-(4-{[6-(5-chloro-2-fluorophenyl)-3-(hydroxymethyl)pyridazin-4-yl]amino}pyridin-2-yl)-2-(4-methylpiperazin-1-yl)acetamide] | < 1
COC(=O)c1cc2c(Nc3cc(-c4cc(Cl)ccc4F)nnc3CO)ccnc2cc1OCCN1CCN(C)CC1 [Example 165, Methyl 4-{[6-(5-Chloro-2-Fluorophenyl)-3-(Hydroxymethyl)Pyridazin-4-Yl]Amino}-7-[2-(4-Methylpiperazin-1-Yl)Ethoxy]Quinoline-6-Carboxylate] | < 1
CNCCN1CCN(CCC(=O)Nc2cc(Nc3cc(-c4cc(Cl)ccc4F)nnc3C)ccn2)CC1 [Example 104, N-(4-{[6-(5-Chloro-2-Fluorophenyl)-3-Methylpyridazin-4-Yl]Amino}Pyridin-2-Yl)-3-{4-[2-(Methylamino)Ethyl]Piperazin-1-Yl}Propanamide] | < 1
CN1CC2(CCN(CC(=O)Nc3cc(Nc4cc(-c5cc(Cl)ccc5F)nnc4CO)ccn3)CC2)C1 [Example 179, N-(4-{[6-(5-Chloro-2-Fluorophenyl)-3-(Hydroxymethyl)Pyridazin-4-Yl]Amino}Pyridin-2-Yl)-2-{2-Methyl-2,7-Diazaspiro[3.5]Nonan-7-Yl}Acetamide] | < 1
COC(=O)C1CN(C)CCN1CCC(=O)Nc1cc(Nc2cc(-c3cc(Cl)ccc3F)nnc2C)ccn1 (stereo not shown) [Example 99, Methyl 1-{2-[(4-{[6-(5-Chloro-2-Fluorophenyl)-3-Methylpyridazin-4-Yl]Amino}Pyridin-2-Yl)Carbamoyl]Ethyl}-4-Methylpiperazine-2-Carboxylate] | < 1
